Data: ChEMBL document CHEMBL1926578, “On a possible neutral charge state for the catalytic dyad in β-secretase when bound to hydroxyethylene transition state analogue inhibitors” (J Med Chem, 2011)
*1 amine or outer side, *2 acyl side, *3 side chain or, on linkers, in order; H or OH if unused. Where a SMILES comes first, the peptide text is derived from it. [ ]: non-standard residue; d: D form. X1 = CC(C)C[C@H](N[*:1])[C@@H](O)C[C@H](C(=O)[*:2])C(C)C

Target: Beta-secretase 1 (Homo sapiens, UniProt P56817)
Sequence (P56817 whole entry): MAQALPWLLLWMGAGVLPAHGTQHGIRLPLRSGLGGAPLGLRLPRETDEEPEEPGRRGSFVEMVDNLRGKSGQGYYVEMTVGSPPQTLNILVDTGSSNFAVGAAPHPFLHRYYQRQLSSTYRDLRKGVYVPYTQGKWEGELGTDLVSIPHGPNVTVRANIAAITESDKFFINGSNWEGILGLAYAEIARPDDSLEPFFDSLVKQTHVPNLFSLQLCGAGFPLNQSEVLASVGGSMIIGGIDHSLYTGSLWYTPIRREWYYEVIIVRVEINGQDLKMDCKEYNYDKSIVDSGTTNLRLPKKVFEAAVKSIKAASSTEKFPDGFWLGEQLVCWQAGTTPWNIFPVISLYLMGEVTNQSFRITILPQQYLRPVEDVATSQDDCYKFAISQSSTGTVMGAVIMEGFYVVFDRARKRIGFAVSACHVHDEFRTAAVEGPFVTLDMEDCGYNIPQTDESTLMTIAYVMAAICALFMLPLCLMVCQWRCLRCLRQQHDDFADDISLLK

Row | IC50 [nM] | Compound
1 | 165 | CC(C)C[C@H](NC(=O)[C@H](CC(N)=O)NC(=O)[C@@H](NC(=O)[C@@H](N)CCC(=O)O)C(C)C)[C@@H](O)C[C@H](C(=O)N[C@@H](C)C(=O)N[C@@H](CCC(=O)O)C(=O)N[C@@H](Cc1ccccc1)C(=O)O)C(C)C (H-EVN[X1]AEF-OH)
2 | 45.5 | CCC(C)[C@H](NC(=O)[C@@H](N)CCC(N)=O)C(=O)N[C@@H](CC(=O)O)C(=O)N[C@@H](CC(C)C)[C@@H](O)C[C@@H](C)C(=O)N[C@@H](C)C(=O)N[C@@H](CCC(=O)O)C(=O)N[C@@H](Cc1ccccc1)C(=O)O (single isomer, unassigned)
